Source: PMC7265341, “Quantifying CDK inhibitor selectivity in live cells” (Nature Communications, 2020)
Read-outs that look alike come from different tables or passages of the source.

Assays:
[1] = target: CDK1/Cyclin E1 (Homo sapiens, UniProt P06493); assay: NanoBRET live-cell target engagement, CDK1-NanoLuc/Cyclin E1 in HEK-293; type: binding; conditions: 10µM
[2] = target: CDK2/Cyclin E1 (Homo sapiens, UniProt P24941); assay: NanoBRET live-cell target engagement, CDK2-NanoLuc/Cyclin E1 in HEK-293; type: binding; conditions: 10µM
[3] = target: CDK3/Cyclin E1 (Homo sapiens, UniProt Q00526); assay: NanoBRET live-cell target engagement, CDK3-NanoLuc/Cyclin E1 in HEK-293; type: binding; conditions: 10µM
[4] = target: CDK4/Cyclin D1 (Homo sapiens, UniProt P11802); assay: NanoBRET live-cell target engagement, NanoLuc-CDK4/Cyclin D1 in HEK-293; type: binding; conditions: 10µM
[5] = target: CDK5/CDK5R1 (Homo sapiens, UniProt Q00535); assay: NanoBRET live-cell target engagement, CDK5-NanoLuc/CDK5R1 in HEK-293; type: binding; conditions: 10µM
[6] = target: CDK6/Cyclin D1 (Homo sapiens, UniProt Q00534); assay: NanoBRET live-cell target engagement, NanoLuc-CDK6/Cyclin D1 in HEK-293; type: binding; conditions: 10µM
[7] = target: CDK7 (Homo sapiens, UniProt P50613); assay: NanoBRET live-cell target engagement, NanoLuc-CDK7 in HEK-293; type: binding; conditions: 10µM
[8] = target: CDK8/Cyclin C (Homo sapiens, UniProt P49336); assay: NanoBRET live-cell target engagement, NanoLuc-CDK8/Cyclin C in HEK-293; type: binding; conditions: for IC50: read-out: CDK8/C IC50
[9] = target: CDK9/Cyclin K (Homo sapiens, UniProt P50750); assay: NanoBRET live-cell target engagement, NanoLuc-CDK9/Cyclin K in HEK-293; type: binding; conditions: 10µM
[10] = target: T1, CDK11A/Cyclin L2 (Homo sapiens, UniProt Q9UQ88); assay: NanoBRET live-cell target engagement, CDK11A-NanoLuc/Cyclin L2 in HEK-293; type: binding; conditions: 10µM
T1 sequence (Q9UQ88 1-783): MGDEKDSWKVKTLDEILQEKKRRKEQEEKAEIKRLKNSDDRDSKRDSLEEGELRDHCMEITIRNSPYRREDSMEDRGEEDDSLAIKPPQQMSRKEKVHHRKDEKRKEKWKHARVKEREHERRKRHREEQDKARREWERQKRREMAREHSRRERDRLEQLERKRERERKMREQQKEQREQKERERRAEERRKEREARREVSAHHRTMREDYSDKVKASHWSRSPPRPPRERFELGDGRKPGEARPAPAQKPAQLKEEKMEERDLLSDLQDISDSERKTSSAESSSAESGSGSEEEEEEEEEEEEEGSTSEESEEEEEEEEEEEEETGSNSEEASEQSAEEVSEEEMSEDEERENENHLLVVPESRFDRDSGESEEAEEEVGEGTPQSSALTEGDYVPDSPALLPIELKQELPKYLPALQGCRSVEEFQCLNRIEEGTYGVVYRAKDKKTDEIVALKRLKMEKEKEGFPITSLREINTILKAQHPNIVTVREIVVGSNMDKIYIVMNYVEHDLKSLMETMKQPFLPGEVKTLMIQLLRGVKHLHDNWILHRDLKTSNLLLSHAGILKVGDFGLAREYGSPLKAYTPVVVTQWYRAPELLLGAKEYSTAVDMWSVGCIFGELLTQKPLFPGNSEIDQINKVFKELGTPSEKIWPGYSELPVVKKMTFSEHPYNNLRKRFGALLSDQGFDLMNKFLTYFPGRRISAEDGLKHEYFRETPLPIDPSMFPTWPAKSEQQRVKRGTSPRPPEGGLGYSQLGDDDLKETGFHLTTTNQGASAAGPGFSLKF

[11] = target: CDK11B/Cyclin L2 (Homo sapiens, UniProt P21127); assay: NanoBRET live-cell target engagement, CDK11B-NanoLuc/Cyclin L2 in HEK-293; type: binding; conditions: 10µM
[12] = target: CDK12/Cyclin K (Homo sapiens, UniProt Q9NYV4); assay: NanoBRET live-cell target engagement, CDK12-NanoLuc/Cyclin K in HEK-293; type: binding; conditions: 10µM
[13] = target: CDK13/Cyclin K (Homo sapiens, UniProt Q14004); assay: NanoBRET live-cell target engagement, CDK13-NanoLuc/Cyclin K in HEK-293; type: binding; conditions: 10µM
[14] = target: CDK14/Cyclin Y (Homo sapiens, UniProt O94921); assay: NanoBRET live-cell target engagement, CDK14-NanoLuc/Cyclin Y in HEK-293; type: binding; conditions: 10µM
[15] = target: CDK15/Cyclin Y (Homo sapiens, UniProt Q96Q40); assay: NanoBRET live-cell target engagement, NanoLuc-CDK15/Cyclin Y in HEK-293; type: binding; conditions: 10µM
[16] = target: CDK16/Cyclin Y (Homo sapiens, UniProt Q00536); assay: NanoBRET live-cell target engagement, CDK16-NanoLuc/Cyclin Y in HEK-293; type: binding; conditions: 10µM
[17] = target: CDK17/Cyclin Y (Homo sapiens, UniProt Q00537); assay: NanoBRET live-cell target engagement, CDK17-NanoLuc/Cyclin Y in HEK-293; type: binding; conditions: 10µM
[18] = target: CDK18/Cyclin Y (Homo sapiens, UniProt Q07002); assay: NanoBRET live-cell target engagement, CDK18-NanoLuc/Cyclin Y in HEK-293; type: binding; conditions: 10µM
[19] = target: CDK20/Cyclin H (Homo sapiens, UniProt Q8IZL9); assay: NanoBRET live-cell target engagement, NanoLuc-CDK20/Cyclin H in HEK-293; type: binding; conditions: 10µM
[20] = target: CDK19/Cyclin C (Homo sapiens, UniProt Q9BWU1); assay: NanoBRET live-cell target engagement, NanoLuc-CDK19/Cyclin C in HEK-293
[21] = target: CDK10/Cyclin L2 (Homo sapiens, UniProt Q15131); assay: NanoBRET live-cell target engagement, CDK10-NanoLuc/Cyclin L2 in HEK-293; conditions: 10µM

Sequence of CDK18/Cyclin Y (Q07002 whole entry): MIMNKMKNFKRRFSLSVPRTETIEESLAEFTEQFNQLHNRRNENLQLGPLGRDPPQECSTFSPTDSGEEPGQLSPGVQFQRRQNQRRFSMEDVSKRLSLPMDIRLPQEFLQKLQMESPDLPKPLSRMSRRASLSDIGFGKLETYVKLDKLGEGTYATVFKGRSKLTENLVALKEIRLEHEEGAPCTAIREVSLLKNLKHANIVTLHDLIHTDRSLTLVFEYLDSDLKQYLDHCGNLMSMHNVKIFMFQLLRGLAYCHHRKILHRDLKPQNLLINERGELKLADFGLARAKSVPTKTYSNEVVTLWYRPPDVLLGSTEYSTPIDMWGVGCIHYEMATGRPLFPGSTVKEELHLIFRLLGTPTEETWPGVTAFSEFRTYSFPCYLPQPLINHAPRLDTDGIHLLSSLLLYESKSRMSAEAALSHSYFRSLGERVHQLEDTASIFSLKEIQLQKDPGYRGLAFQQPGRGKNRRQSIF
Sequence of CDK18/Cyclin Y (Q8ND76 whole entry partner): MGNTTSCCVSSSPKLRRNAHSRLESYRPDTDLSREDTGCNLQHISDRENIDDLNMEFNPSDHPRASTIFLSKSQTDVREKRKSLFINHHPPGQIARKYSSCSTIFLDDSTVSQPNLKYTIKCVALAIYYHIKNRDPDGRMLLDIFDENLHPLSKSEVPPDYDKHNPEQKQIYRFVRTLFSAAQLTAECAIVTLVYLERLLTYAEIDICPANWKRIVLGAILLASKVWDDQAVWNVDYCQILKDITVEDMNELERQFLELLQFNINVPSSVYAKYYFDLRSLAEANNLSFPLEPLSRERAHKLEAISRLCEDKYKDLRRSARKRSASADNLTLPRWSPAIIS
Sequence of CDK14/Cyclin Y (O94921 whole entry): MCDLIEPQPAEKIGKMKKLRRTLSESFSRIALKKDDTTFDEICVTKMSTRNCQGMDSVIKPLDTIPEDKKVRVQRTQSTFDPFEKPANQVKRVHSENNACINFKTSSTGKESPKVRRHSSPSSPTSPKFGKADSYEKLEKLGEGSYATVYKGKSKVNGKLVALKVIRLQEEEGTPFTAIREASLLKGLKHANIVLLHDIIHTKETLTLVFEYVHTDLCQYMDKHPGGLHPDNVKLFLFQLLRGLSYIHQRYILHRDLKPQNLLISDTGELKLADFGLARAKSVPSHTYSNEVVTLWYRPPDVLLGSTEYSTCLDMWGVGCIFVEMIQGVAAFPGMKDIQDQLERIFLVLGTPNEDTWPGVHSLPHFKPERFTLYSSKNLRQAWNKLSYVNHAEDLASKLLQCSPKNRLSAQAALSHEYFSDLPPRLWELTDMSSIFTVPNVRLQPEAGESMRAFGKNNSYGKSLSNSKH
Sequence of CDK14/Cyclin Y (Q8ND76 whole entry partner): as the sequence (Q8ND76 whole entry partner) above
Sequence of CDK15/Cyclin Y (Q96Q40 whole entry): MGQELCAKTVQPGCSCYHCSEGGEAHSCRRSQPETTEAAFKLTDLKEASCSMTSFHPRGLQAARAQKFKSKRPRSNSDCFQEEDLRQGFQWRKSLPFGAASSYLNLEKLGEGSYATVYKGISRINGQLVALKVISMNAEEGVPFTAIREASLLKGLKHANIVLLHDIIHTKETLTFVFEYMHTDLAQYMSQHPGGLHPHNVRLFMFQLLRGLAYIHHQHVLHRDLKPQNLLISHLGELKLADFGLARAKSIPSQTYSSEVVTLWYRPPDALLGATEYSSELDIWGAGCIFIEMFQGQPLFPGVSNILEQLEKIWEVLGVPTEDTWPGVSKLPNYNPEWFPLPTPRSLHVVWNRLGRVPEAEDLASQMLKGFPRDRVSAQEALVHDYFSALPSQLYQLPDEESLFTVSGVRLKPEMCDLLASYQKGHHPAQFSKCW
Sequence of CDK15/Cyclin Y (Q8ND76 whole entry partner): as the sequence (Q8ND76 whole entry partner) above
Sequence of CDK4/Cyclin D1 (P11802 whole entry): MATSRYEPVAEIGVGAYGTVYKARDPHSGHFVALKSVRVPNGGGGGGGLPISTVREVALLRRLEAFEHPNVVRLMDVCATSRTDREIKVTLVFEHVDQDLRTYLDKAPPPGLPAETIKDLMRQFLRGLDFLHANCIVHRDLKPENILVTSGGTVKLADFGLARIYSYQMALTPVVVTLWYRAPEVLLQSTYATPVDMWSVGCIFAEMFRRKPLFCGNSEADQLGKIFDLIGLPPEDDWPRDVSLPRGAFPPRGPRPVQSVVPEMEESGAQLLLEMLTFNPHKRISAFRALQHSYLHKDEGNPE
Sequence of CDK4/Cyclin D1 (P24385 whole entry partner): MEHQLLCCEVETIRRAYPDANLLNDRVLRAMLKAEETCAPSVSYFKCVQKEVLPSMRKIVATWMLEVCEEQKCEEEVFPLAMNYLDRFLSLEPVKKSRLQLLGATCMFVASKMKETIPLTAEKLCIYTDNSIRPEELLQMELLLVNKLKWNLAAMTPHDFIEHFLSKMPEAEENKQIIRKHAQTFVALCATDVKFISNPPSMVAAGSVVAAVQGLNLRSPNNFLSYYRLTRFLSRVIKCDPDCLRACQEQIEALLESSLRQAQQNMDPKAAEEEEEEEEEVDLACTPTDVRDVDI
Sequence of CDK9/Cyclin K (P50750 whole entry): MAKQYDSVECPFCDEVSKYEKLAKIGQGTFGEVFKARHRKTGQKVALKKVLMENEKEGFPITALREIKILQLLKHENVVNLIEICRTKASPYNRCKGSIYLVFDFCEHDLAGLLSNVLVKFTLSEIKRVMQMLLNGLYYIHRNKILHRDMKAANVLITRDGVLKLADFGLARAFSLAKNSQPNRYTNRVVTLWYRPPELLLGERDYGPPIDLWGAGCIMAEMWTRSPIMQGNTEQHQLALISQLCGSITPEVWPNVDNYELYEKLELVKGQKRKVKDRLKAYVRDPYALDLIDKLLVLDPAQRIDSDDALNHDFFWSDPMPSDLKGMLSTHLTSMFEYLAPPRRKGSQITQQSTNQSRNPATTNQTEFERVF
Sequence of CDK9/Cyclin K (O75909 whole entry partner): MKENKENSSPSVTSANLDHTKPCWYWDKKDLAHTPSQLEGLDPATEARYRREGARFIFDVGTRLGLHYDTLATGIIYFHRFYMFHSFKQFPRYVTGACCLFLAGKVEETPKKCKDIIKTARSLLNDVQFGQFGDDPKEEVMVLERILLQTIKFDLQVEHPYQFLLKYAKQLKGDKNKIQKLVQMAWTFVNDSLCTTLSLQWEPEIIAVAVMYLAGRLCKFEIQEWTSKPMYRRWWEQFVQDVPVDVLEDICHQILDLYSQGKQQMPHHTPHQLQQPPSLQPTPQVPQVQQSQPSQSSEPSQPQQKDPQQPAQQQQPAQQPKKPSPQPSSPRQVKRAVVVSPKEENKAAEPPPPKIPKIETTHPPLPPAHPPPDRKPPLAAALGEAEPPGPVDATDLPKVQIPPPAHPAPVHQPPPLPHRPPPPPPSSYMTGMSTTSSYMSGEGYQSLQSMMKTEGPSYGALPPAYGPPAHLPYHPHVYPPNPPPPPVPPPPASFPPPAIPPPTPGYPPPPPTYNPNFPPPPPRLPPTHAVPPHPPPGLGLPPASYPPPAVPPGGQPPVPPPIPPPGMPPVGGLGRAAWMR
Sequence of CDK13/Cyclin K (O75909 whole entry): as the sequence (O75909 whole entry partner) above
Sequence of CDK13/Cyclin K (Q14004 other isoform, or with tags, fused parts or gaps): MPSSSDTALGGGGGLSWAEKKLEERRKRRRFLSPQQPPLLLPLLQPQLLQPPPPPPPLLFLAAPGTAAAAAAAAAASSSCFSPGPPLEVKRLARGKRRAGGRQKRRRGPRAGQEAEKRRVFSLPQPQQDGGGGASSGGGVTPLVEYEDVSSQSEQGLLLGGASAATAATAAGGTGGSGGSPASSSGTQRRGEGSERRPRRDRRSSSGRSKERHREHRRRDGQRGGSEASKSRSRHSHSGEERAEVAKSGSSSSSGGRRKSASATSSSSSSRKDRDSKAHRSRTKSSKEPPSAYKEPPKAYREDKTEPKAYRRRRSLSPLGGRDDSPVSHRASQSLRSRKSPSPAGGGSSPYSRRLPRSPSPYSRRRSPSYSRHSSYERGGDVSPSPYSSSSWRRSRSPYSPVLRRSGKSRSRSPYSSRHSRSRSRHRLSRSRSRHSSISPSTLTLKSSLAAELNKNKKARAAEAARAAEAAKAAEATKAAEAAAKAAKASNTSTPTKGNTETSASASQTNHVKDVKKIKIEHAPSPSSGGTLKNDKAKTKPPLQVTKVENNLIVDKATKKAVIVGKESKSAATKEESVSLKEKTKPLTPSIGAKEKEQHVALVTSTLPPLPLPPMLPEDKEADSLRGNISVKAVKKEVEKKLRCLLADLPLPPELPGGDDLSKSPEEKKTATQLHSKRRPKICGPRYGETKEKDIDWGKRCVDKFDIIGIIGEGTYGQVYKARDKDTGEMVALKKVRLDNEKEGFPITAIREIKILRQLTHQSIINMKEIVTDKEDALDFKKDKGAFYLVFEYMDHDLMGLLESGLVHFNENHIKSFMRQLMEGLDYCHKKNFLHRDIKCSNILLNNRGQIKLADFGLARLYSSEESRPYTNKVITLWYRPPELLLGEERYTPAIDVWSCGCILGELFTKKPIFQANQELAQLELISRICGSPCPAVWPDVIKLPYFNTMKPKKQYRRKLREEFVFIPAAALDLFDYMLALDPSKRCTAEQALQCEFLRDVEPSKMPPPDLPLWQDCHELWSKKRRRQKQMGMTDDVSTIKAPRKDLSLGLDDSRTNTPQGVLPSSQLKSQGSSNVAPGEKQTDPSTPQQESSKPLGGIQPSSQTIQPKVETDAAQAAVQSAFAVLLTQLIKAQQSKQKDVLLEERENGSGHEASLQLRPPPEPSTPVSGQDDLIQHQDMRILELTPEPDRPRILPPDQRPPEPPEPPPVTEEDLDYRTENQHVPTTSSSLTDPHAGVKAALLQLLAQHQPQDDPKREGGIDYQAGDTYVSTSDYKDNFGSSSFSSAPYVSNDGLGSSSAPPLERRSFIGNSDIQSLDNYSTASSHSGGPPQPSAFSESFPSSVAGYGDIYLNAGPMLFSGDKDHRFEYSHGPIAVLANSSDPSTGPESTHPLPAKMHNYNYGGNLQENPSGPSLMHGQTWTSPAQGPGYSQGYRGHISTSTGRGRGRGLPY

In the case of Cc1c(Br)c(Br)c2c3c1nc(N1CCNCC1)n3CCC2.Cl [SEL 120-34A], the “CDK1/E1 Inhibition at 10µM (%)” value ([1]; average of experiments) is reported as 37.6%, the “CDK1/E1 Inhibition at 10µM (%)” value ([1]; independent experiment 1) is reported as 21.0% and the “CDK1/E1 Inhibition at 10µM (%)” value ([1]; independent experiment 2) is reported as 54.1%. The “CDK2/E1 Inhibition at 10µM (%)” value ([2]; average of experiments) was 22.7%, the “CDK2/E1 Inhibition at 10µM (%)” value ([2]; independent experiment 1) was 24.3% and the “CDK2/E1 Inhibition at 10µM (%)” value ([2]; independent experiment 2) was 21.2%. The “CDK3/E1 Inhibition at 10µM (%)” value ([3]; average of experiments) was 33.7%, the “CDK3/E1 Inhibition at 10µM (%)” value ([3]; independent experiment 1) was 26.5% and the “CDK3/E1 Inhibition at 10µM (%)” value ([3]; independent experiment 2) was 40.8%. The “CDK4/D1 Inhibition at 10µM (%)” value ([4]; average of experiments) was 37.4%, the “CDK4/D1 Inhibition at 10µM (%)” value ([4]; independent experiment 1) was 12.4% and the “CDK4/D1 Inhibition at 10µM (%)” value ([4]; independent experiment 2) was 62.4%. For the same compound, the “CDK5/CDK5R1 Inhibition at 10µM (%)” value ([5]; average of experiments) was 46.5%, the “CDK5/CDK5R1 Inhibition at 10µM (%)” value ([5]; independent experiment 1) was 31.2% and the “CDK5/CDK5R1 Inhibition at 10µM (%)” value ([5]; independent experiment 2) was 61.8%. For the same compound, the “CDK6/D1 Inhibition at 10µM (%)” value ([6]; average of experiments) was 31.6%, the “CDK6/D1 Inhibition at 10µM (%)” value ([6]; independent experiment 1) was 10.1% and the “CDK6/D1 Inhibition at 10µM (%)” value ([6]; independent experiment 2) was 53.1%. For the same compound, the “CDK7 Inhibition at 10µM (%)” value ([7]; average of experiments) was 37.0%, the “CDK7 Inhibition at 10µM (%)” value ([7]; independent experiment 1) was 34.4% and the “CDK7 Inhibition at 10µM (%)” value ([7]; independent experiment 2) was 39.7%. The “CDK8/C Inhibition at 10µM (%)” value ([8]; average of experiments) was 97.3%, the “CDK8/C Inhibition at 10µM (%)” value ([8]; independent experiment 1) was 96.1% and the “CDK8/C Inhibition at 10µM (%)” value ([8]; independent experiment 2) was 98.6%. The IC50 ([8]; average (± SEM where n=3)) was 75 nM, the IC50 ([8]; independent experiment 1) was 73 nM and the IC50 ([8]; independent experiment 2) was 77 nM. For the same compound, the “CDK9/K Inhibition at 10µM (%)” value ([9]; average of experiments) was 71.2%, the “CDK9/K Inhibition at 10µM (%)” value ([9]; independent experiment 1) was 54.9% and the “CDK9/K Inhibition at 10µM (%)” value ([9]; independent experiment 2) was 87.6%. The “CDK11a/L2 Inhibition at 10µM (%)” value ([10]; average of experiments) was 43.7%, the “CDK11a/L2 Inhibition at 10µM (%)” value ([10]; independent experiment 1) was 31.1% and the “CDK11a/L2 Inhibition at 10µM (%)” value ([10]; independent experiment 2) was 56.3%. For the same compound, the “CDK11b/L2 Inhibition at 10µM (%)” value ([11]; average of experiments) was 38.1%, the “CDK11b/L2 Inhibition at 10µM (%)” value ([11]; independent experiment 1) was 35.0% and the “CDK11b/L2 Inhibition at 10µM (%)” value ([11]; independent experiment 2) was 41.2%. The “CDK12/K Inhibition at 10µM (%)” value ([12]; average of experiments) was 44.4%, the “CDK12/K Inhibition at 10µM (%)” value ([12]; independent experiment 1) was 40.8% and the “CDK12/K Inhibition at 10µM (%)” value ([12]; independent experiment 2) was 48.0%. For the same compound, the “CDK13/K Inhibition at 10µM (%)” value ([13]; average of experiments) was 36.8%, the “CDK13/K Inhibition at 10µM (%)” value ([13]; independent experiment 1) was 29.4% and the “CDK13/K Inhibition at 10µM (%)” value ([13]; independent experiment 2) was 44.2%. For the same compound, the “CDK14/Y Inhibition at 10µM (%)” value ([14]; average of experiments) was 26.1%, the “CDK14/Y Inhibition at 10µM (%)” value ([14]; independent experiment 1) was 21.7% and the “CDK14/Y Inhibition at 10µM (%)” value ([14]; independent experiment 2) was 30.4%. For the same compound, the “CDK15/Y Inhibition at 10µM (%)” value ([15]; average of experiments) was 37.3%, the “CDK15/Y Inhibition at 10µM (%)” value ([15]; independent experiment 1) was 38.3% and the “CDK15/Y Inhibition at 10µM (%)” value ([15]; independent experiment 2) was 36.3%. For the same compound, the “CDK16/Y Inhibition at 10µM (%)” value ([16]; independent experiment 1) was 51.2%, the “CDK16/Y Inhibition at 10µM (%)” value ([16]; independent experiment 2) was 12.7% and the “CDK17/Y Inhibition at 10µM (%)” value ([17]; average of experiments) was 38.7%. For the same compound, the “CDK17/Y Inhibition at 10µM (%)” value ([17]; independent experiment 1) was 45.5%, the “CDK17/Y Inhibition at 10µM (%)” value ([17]; independent experiment 2) was 32.0% and the “CDK18/Y Inhibition at 10µM (%)” value ([18]; average of experiments) was 39.4%. For the same compound, the “CDK18/Y Inhibition at 10µM (%)” value ([18]; independent experiment 1) was 47.0%, the “CDK18/Y Inhibition at 10µM (%)” value ([18]; independent experiment 2) was 31.9% and the “CDK20/H Inhibition at 10µM (%)” value ([19]; independent experiment 1) was 7.8%. For the same compound, the “CDK20/H Inhibition at 10µM (%)” value ([19]; independent experiment 2) was 31.3%, the “CDK19/C Inhibition at 10µM (%)” value ([20]; average of experiments) was 99.2% and the “CDK19/C Inhibition at 10µM (%)” value ([20]; independent experiment 1) was 96.4%. For the same compound, the “CDK19/C Inhibition at 10µM (%)” value ([20]; independent experiment 2) was 102.0%, the IC50 ([20]; read-out: CDK19/C IC50, independent experiment 1) was 120 nM and the IC50 ([20]; read-out: CDK19/C IC50, independent experiment 2) was 140 nM. For the same compound, the IC50 ([20]; read-out: CDK19/Y IC50, average (± SEM where n=3)) was 130 nM, the “CDK10/L2 Inhibition at 10µM (%)” value ([21]; average of experiments) was 33.9% and the “CDK10/L2 Inhibition at 10µM (%)” value ([21]; independent experiment 1) was 26.3%. For the same compound, the “CDK10/L2 Inhibition at 10µM (%)” value ([21]; independent experiment 2) was 41.4%.
